This assay relates to SREBP pathway. In words: SREBP luciferase reporter gene system (SRE-luciferase assay). Format: cell-based, human. The note with it: Huh-7/SRE-luc cells, sterol-deficient medium, 0.01-10 µM. The procedure, abridged: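 Readout was SRE-driven luciferase normalised to GFP fluorescence in lysates of stably transfected Huh-7/SRE-luc hepatoma cells. Compounds (0.01, 0.03, 0.1, 0.3, 1.0, 3.0, 10 µM; DMSO control) were applied for 16 h in sterol-depleted medium with 2 µM lovastatin and 10 µM mevalonate; IC50 from variable-slope fit.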

With `C[C@H](CCC[C@@H](O)c1cccc2c1cnn2C)[C@H]1CC[C@H]2C3=C(F)C[C@H]4[C@@H](O)[C@@H](O)CC[C@]4(C)[C@H]3CC[C@]12C` [Compound 253, (1R,3aR,5aR,6R,7S,9aR,9bR,11aR)-4-fluoro-1-[(2R,6R)-6-hydroxy-6-(1-methylindazol-4-yl)hexan-2-yl]-9a,11a-dimethyl-2,3,3a,5,5a,6,7,8,9,9a,9b,10,11,11a-tetradecahydro-1H-cyclopenta[1,2-a]phenanthrene-6,7-diol], for the setting “Homo sapiens, Huh-7, 16 h”, the IC50 came out at 0.016 µM. Still for that read-out and setting: the figure for `COc1nccnc1[C@H](O)CCC[C@@H](C)[C@H]1CC[C@H]2[C@H]3[C@H](CC[C@]12C)[C@@]1(C)CC[C@H](O)[C@H](O)[C@@H]1CC3(F)F` [Compound 154, (1R,3aS,3bS,5aR,6R,7S,9aR,9bS,11aR)-4,4-difluoro-1-[(2R,6R)-6-hydroxy-6-(3-methoxypyrazin-2-yl)hexan-2-yl]-9a,11a-dimethylhexadecahydro-1H-cyclopenta[1,2-a]phenanthrene-6,7-diol] is 0.242 µM; for `COc1nc(F)ccc1[C@H](O)CC[C@@H](C)[C@H]1CC[C@H]2C3=C(F)C[C@H]4[C@@H](O)[C@@H](O)CC[C@]4(C)[C@H]3CC[C@]12C` [Compound 340, (1R,3aR,5aR,6R,7S,9aR,9bR,11aR)-4-fluoro-1-[(2R,5R)-5-(6-fluoro-2-methoxypyridin-3-yl)-5-hydroxypentan-2-yl]-9a,11a-dimethyl-2,3,3a,5,5a,6,7,8,9,9a,9b,10,11,11a-tetradecahydro-1H-cyclopenta[1,2-a]phenanthrene-6,7-diol] it is 0.108 µM; for `C[C@H](CCCC(O)c1ccccc1F)[C@H]1CC[C@H]2C3=C(F)C[C@H]4[C@@H](O)[C@@H](O)CC[C@]4(C)[C@H]3CC[C@]12C` (stereo partly drawn) [Compound 4, (1R,3aR,5aR,6R,7S,9aR,9bR,11aR)-4-fluoro-1-[(2R)-6-(2-fluorophenyl)-6-hydroxyhexan-2-yl]-9a,11a-dimethyl-2,3,3a,5,5a,6,7,8,9,9a,9b,10,11,11a-tetradecahydro-1H-cyclopenta[1,2-a]phenanthrene-6,7-diol] it is 0.09 µM. For `C[C@H](CCC[C@H](O)c1nc2cnccc2n1C)[C@H]1CC[C@H]2[C@H]3[C@H](CC[C@]12C)[C@@]1(C)CC[C@H](O)[C@H](O)[C@@H]1CC3(F)F` [Compound 318, (1R,3aS,3bS,5aR,6R,7S,9aR,9bS,11aR)-4,4-difluoro-1-[(2R,6S)-6-hydroxy-6-(1-methylimidazo[5,4-c]pyridin-2-yl)hexan-2-yl]-9a,11a-dimethylhexadecahydro-1H-cyclopenta[1,2-a]phenanthrene-6,7-diol], the IC50 (Homo sapiens, Huh-7, 16 h) came to 0.296 µM. Same read-out and setting: the figure for `COc1cc(F)c(C(O)CCC[C@@H](C)[C@H]2CC[C@H]3[C@H]4[C@H](CC[C@]23C)[C@@]2(C)CC[C@H](O)[C@H](O)[C@@H]2CC4(F)F)c(F)c1` (single isomer, unassigned) [Compound 205, (1R,3aS,3bS,5aR,6R,7S,9aR,9bS,11aR)-1-[(2R,6R)-6-(2,6-difluoro-4-methoxyphenyl)-6-hydroxyhexan-2-yl]-4,4-difluoro-9a,11a-dimethylhexadecahydro-1H-cyclopenta[1,2-a]phenanthrene-6,7-diol or (1R,3aS,3bS,5aR,6R,7S,9aR,9bS,11aR)-1-[(2R,6S)-6-(2,6-difluoro-4-methoxyphenyl)-6-hydroxyhexan-2-yl]-4,4-difluoro-9a,11a-dimethylhexadecahydro-1H-cyclopenta[1,2-a]phenanthrene-6,7-diol] is 0.107 µM.

With `COc1ccnc(OC)c1C(O)CCC[C@@H](C)[C@H]1CC[C@H]2[C@H]3[C@H](CC[C@]12C)[C@@]1(C)CC[C@H](O)[C@H](O)[C@@H]1CC3(F)F` (single isomer, unassigned) [Compound 172, (1R,3aS,3bS,5aR,6R,7S,9aR,9bS,11aR)-1-[(2R,6R)-6-(2,4-dimethoxypyridin-3-yl)-6-hydroxyhexan-2-yl]-4,4-difluoro-9a,11a-dimethylhexadecahydro-1H-cyclopenta[1,2-a]phenanthrene-6,7-diol or (1R,3aS,3bS,5aR,6R,7S,9aR,9bS,11aR)-1-[(2R,6S)-6-(2,4-dimethoxypyridin-3-yl)-6-hydroxyhexan-2-yl]-4,4-difluoro-9a,11a-dimethylhexadecahydro-1H-cyclopenta[1,2-a]phenanthrene-6,7-diol], the half-maximal inhibitory concentration (IC50) (16 hours) turned out to be 0.113 µM. Consider `C[C@H](CCC[C@H](O)c1n[nH]c2ccccc12)[C@H]1CC[C@H]2[C@H]3[C@H](CC[C@]12C)[C@@]1(C)CC[C@H](O)[C@H](O)[C@@H]1CC3(F)F` [Compound 319, (1R,3aS,3bS,5aR,6R,7S,9aR,9bS,11aR)-4,4-difluoro-1-[(2R,6S)-6-hydroxy-6-(1H-indazol-3-yl)hexan-2-yl]-9a,11a-dimethylhexadecahydro-1H-cyclopenta[1,2-a]phenanthrene-6,7-diol], for which the concentration for half-maximal inhibition (IC50) (Homo sapiens, Huh-7, 16 h) is 0.104 µM. The same measure, in the same setting: the result for `COc1ccnc(F)c1C(O)CCC[C@@H](C)[C@H]1CC[C@H]2C3=C(F)C[C@H]4[C@@H](O)[C@@H](O)CC[C@]4(C)[C@H]3CC[C@]12C` (stereo partly drawn) [Compound 150, (1R,3aR,5aR,6R,7S,9aR,9bR,11aR)-4-fluoro-1-[(2R)-6-(2-fluoro-4-methoxypyridin-3-yl)-6-hydroxyhexan-2-yl]-9a,11a-dimethyl-2,3,3a,5,5a,6,7,8,9,9a,9b,10,11,11a-tetradecahydro-1H-cyclopenta[1,2-a]phenanthrene-6,7-diol] reads 0.19 µM; that for `COc1cccc(F)c1C(CCC[C@@H](C)[C@H]1CC[C@H]2[C@H]3[C@H](CC[C@]12C)[C@@]1(C)CC[C@H](O)[C@H](O)[C@@H]1CC3(F)F)=NO` (single isomer, unassigned) [Compound 211, [(1Z,5R)-5-[(1R,3aS,3bS,5aR,6R,7S,9aS,9bS,11aR)-4,4-difluoro-6,7-dihydroxy-9a,9b,11a-trimethylhexadecahydro-1H-cyclopenta[1,2-a]phenanthren-1-yl]-1-(2-fluoro-6-methoxyphenyl)hexylidene]hydroxylamine or [(1E,5R)-5-[(1R,3aS,3bS,5aR,6R,7S,9aR,9bS,11aR)-4,4-difluoro-6,7-dihydroxy-9a,11a-dimethylhexadecahydro-1H-cyclopenta[1,2-a]phenanthren-1-yl]-1-(2-fluoro-6-methoxyphenyl)hexylidene]hydroxylamine], 0.08 µM. Same read-out and setting: the figure for `COc1ncncc1C(O)CCC[C@@H](C)[C@H]1CC[C@H]2[C@H]3[C@H](CC[C@]12C)[C@@]1(C)CC[C@H](O)[C@H](O)[C@@H]1CC3(F)F` (stereo partly drawn) [Compound 152, (1R,3aS,3bS,5aR,6R,7S,9aR,9bS,11aR)-4,4-difluoro-1-[(2R)-6-hydroxy-6-(4-methoxypyrimidin-5-yl)hexan-2-yl]-9a,11a-dimethylhexadecahydro-1H-cyclopenta[1,2-a]phenanthrene-6,7-diol] is 0.14 µM; for `COc1c(F)cccc1C(O)CCC[C@@H](C)[C@H]1CC[C@H]2C3=C(F)C[C@H]4[C@@H](O)[C@@H](O)CC[C@]4(C)[C@H]3CC[C@]12C` (stereo partly drawn) [Compound 48, (1R,3aR,5aR,6R,7S,9aR,9bR,11aR)-4-fluoro-1-[(2R)-6-(3-fluoro-2-methoxyphenyl)-6-hydroxyhexan-2-yl]-9a,11a-dimethyl-2,3,3a,5,5a,6,7,8,9,9a,9b,10,11,11a-tetradecahydro-1H-cyclopenta[1,2-a]phenanthrene-6,7-diol] it is 0.203 µM.

These data come from patent publication EP4752152A1, “STEROID COMPOUND, AND PREPARATION METHOD THEREFOR AND USE THEREOF” (Cholesgen (Shanghai) Co.Ltd., priority 2023, dated 2025).
